# Test results: patent US5413915A (priority 1991, dated 1995)
# Like-named read-outs stand apart in the source and are kept apart here. Marks after values point to notes of the source that are not given here.
# Key:
# [1] = in vivo; cited from earlier work
# [2] = in vivo; cited from earlier work; remark: listed apart in the source
# rat liver microsomes [3] = assay type: biochemical; set-up: key: Positive: the development of coloration denoted a positive response; Negative: the absence of such coloration denoted a negative response
# Salmonella typhimurium = conditions: cited from earlier work
# rat liver microsomes [4] = assay type: biochemical; set-up: unit not given here
# rat liver microsomes [5] = test: Color development in detection elements with different leuco dyes (Table 2); assay type: biochemical; conditions: applied dose 10 μmol (formaldehyde 1 μmol); for New Color Development, NBTZ: unexposed control also Black
# Procedure: Solutions containing 0.5 mM of the respective dyes in 0.1 M TRIS buffer, pH=7.4 (except for nitro blue tetrazolium, 5.0 mM in 50% ethanolic TRIS, pH=7.4) were bleached with a few crystals of sodium sulfite or sodium dithionite, then plied in 0.02 mL aliquots as test spots on a clear sheet of transparency film. Spontaneous color development in air was noted (Table 2). Subsequently, a suspension of rat liver microsomes containing 1 mM NADPH and 1 mg/mL gelatin in 0.1 M TRIS-MOPS buffer (pH=7.7) was plied in 0.05 mL aliquots over the dried leuco-dye test spots. After drying, color development condition was noted, and the test spots saved for exposure tests to chemical substances (Table 2). Exposures were carried out by layering 0.01 mL of 0.1-1.0 M solutions of test chemical substances onto the test spots, and changes in color noted over time.
# [6] = Direct reaction of chemicals with the indicator leuco dye; conditions: without metabolic activation
# [7] = cited from earlier work; for E1/2: literature (Kemula and Axt); for Em7: midpoint redox potential
Compound,Carcinogenic Status [1],Tumorigen Activity [1],Teratogen Activity [2],Invention Response (rat liver microsomes [3]),Mutagenicity (Salmonella typhimurium),"Detector Response, threshold dose (rat liver microsomes [4])",also measured
CC(=O)O [Acetate],Negative,-,-,Negative,-,,
Nc1ccccc1 [Aniline],Possible,+^e,-,Positive,+,5,
CC(Cl)(Cl)Cl [CH3 CCl3],,,,,,,"New Color Development, Methyl Green leuco dye (rat liver microsomes [5]): None; New Color Development, Methyl Violet leuco dye (rat liver microsomes [5]): None^a,b; New Color Development, Naphthol Blue-Black leuco dye (rat liver microsomes [5]): None; New Color Development, Nile Blue A leuco dye (rat liver microsomes [5]): None; New Color Development, Safranin O leuco dye (rat liver microsomes [5]): None; New Color Development, NBTZ (rat liver microsomes [5]): Black"
[Cd+2] [Cd(II)],,,+,,+,,"Tumorigen Activity, assignment based on IARC reports [1]: +; Dose-response shift, BNF-induced detection elements versus uninduced controls (cytochrome P450IA1; compared with the shift seen for hydrazine): less significantly"
ClC1=C(Cl)C2(Cl)C3C(Cl)C(Cl)CC3C1(Cl)C2(Cl)Cl (centres unmarked) [Chlordane],Positive,,,Positive,,,
O=c1ccc2ccccc2o1 [Coumarin],Positive,,,Positive,,,
"CN(C)C(=O)Nc1ccc(Cl)c(Cl)c1 [DCMU, 3(3,4-Dichlorophenyl)-1,1,dimethylurea]",Teratogen only,+^e,+,Positive,,,
CC(C)[C@@H](C)/C=C/[C@@H](C)[C@H]1CC[C@H]2C3=CC=C4C[C@@H](O)CC[C@]4(C)[C@H]3CC[C@]12C [Ergosterol],,-,+,,-,0.1,"New Color Development, Methyl Green leuco dye (rat liver microsomes [5]): Green; New Color Development, Methyl Violet leuco dye (rat liver microsomes [5]): Violet; New Color Development, Naphthol Blue-Black leuco dye (rat liver microsomes [5]): None; New Color Development, Nile Blue A leuco dye (rat liver microsomes [5]): Blue; New Color Development, Safranin O leuco dye (rat liver microsomes [5]): Pink; New Color Development, NBTZ (rat liver microsomes [5]): Black"
C=O [Formaldehyde],Probable,+,+,Positive,-,0.01,"Mutagenicity, direct-acting mutagen (Salmonella typhimurium): +; New Color Development, Methyl Violet leuco dye (rat liver microsomes [5]): Violet; New Color Development, Naphthol Blue-Black leuco dye (rat liver microsomes [5]): None; New Color Development, Nile Blue A leuco dye (rat liver microsomes [5]): Blue; New Color Development, Safranin O leuco dye (rat liver microsomes [5]): None; New Color Development, NBTZ (rat liver microsomes [5]): Black; Direct reaction with the indicator leuco dye [6]: react directly with the indicator dye"
OO [H2 O2],,,-,,+,1-2,"Tumorigen Activity, assignment based on IARC reports [1]: +; Direct reaction with the indicator leuco dye [6]: react directly with the indicator dye"
"O=C(O)CI [ICH2 COOH, iodoacetic acid]",,,,,,,"New Color Development, Methyl Green leuco dye (rat liver microsomes [5]): Green; New Color Development, Methyl Violet leuco dye (rat liver microsomes [5]): Purple; New Color Development, Naphthol Blue-Black leuco dye (rat liver microsomes [5]): None; New Color Development, Safranin O leuco dye (rat liver microsomes [5]): None; New Color Development, NBTZ (rat liver microsomes [5]): Black; Direct reaction with the indicator leuco dye [6]: react with the leuco dye to give colored products; Direct reaction with the indicator leuco dye ([6]; listed as iodoacetate): react directly with the indicator dye"
"Cl[C@H]1[C@H](Cl)[C@@H](Cl)[C@@H](Cl)[C@H](Cl)[C@H]1Cl [Lindane (USP), Lindane]",,+,+,,-,0.2,
"CCOC(=O)CC(SP(=S)(OC)OC)C(=O)OCC (centres unmarked) [Malathion (ind.), Malathion]",,-,+,,-,0.1,"Mutagenicity, direct-acting mutagen (Salmonella typhimurium): +"
[Mn+2] [Manganese(II)],,+,+,,-,5,
CC1=CC(=O)c2ccccc2C1=O [Menadione],Possible,+^e,+,Positive,+,0.01,"New Color Development, Methyl Green leuco dye (rat liver microsomes [5]): None; New Color Development, Methyl Violet leuco dye (rat liver microsomes [5]): None^a,b; New Color Development, Naphthol Blue-Black leuco dye (rat liver microsomes [5]): None^b; New Color Development, Nile Blue A leuco dye (rat liver microsomes [5]): None^b; New Color Development, Safranin O leuco dye (rat liver microsomes [5]): None; New Color Development, NBTZ (rat liver microsomes [5]): Black"
"CN(C)c1ccc(C(=C2C=CC(=[N+](C)C)C=C2)c2ccc([N+](C)(C)C)cc2)cc1.[Cl-].[Cl-] [Methyl Green, methyl green]",,,,,,,E1/2 [7]: approximately -0.55 V
"CN(C)c1ccc2nc3ccc(=[N+](C)C)cc-3sc2c1 [Methylene Blue (USP), Methylene Blue]",,-,-,,+,,Em7 [7]: +0.01 V
"C=CC(=O)NCNC(=O)C=C [Methylene(bis)acrylamide, Methylene(bis)-acrylamide]",,-,-,,-,< 2,

Compound,Carcinogenic Status [1],Tumorigen Activity [1],Teratogen Activity [2],Invention Response (rat liver microsomes [3]),Mutagenicity (Salmonella typhimurium),"Detector Response, threshold dose (rat liver microsomes [4])",also measured
Cc1cc(O)ccc1O [Methylhydroquinone],,-,-,,-,30,
O=N[O-].[Na+] [NaNO2],,+,+,,+,0.1,
c1ccc(-c2cnc(-c3ccc(-c4ncc(-c5ccccc5)o4)cc3)o2)cc1 [POPOP],Negative,,,Negative,,,
Oc1ccccc1 [Phenol],Possible,-,-,Positive,,0.02,"Dose-response shift, BNF-induced detection elements versus uninduced controls (cytochrome P450IA1): less significantly"
"Nc1c(Cl)c(Cl)nc(C(=O)O)c1Cl [Picloram (ind.), Picloram]",,,+,,-,0.01,"Tumorigen Activity, assignment based on NCI/NTP carcinogenesis bioassay results [1]: +"
O=C1C=CC(=O)C=C1.Oc1ccc(O)cc1 [Quinhydrone],,+^e,-,,-,0.1-0.2,
Cc1cc2nc3cc(C)c(N)cc3[n+](-c3ccccc3)c2cc1N.[Cl-] [Safranin O],,,,,,,Em7 [7]: -0.28 V
C=Cc1ccccc1 [Styrene],Negative,,,Negative,,,
OC[C@H]1O[C@@](CO)(O[C@H]2O[C@H](CO)[C@@H](O)[C@H](O)[C@H]2O)[C@@H](O)[C@@H]1O [Sucrose],Negative,,,Negative,,,
ClC=C(Cl)Cl [Trichloroethylene],,+,+,,+,150,"Dose-response shift, BNF-induced detection elements versus uninduced controls (cytochrome P450IA1): less significantly"
Cc1cccc(O)c1 [m-Cresol],,-,-,,-,2,
CN(C)c1ccc(C(=C2C=CC(=[N+](C)C)C=C2)c2ccccc2)cc1 [malachite green],,,,,,,E1/2 [7]: -0.55 V
O=S([O-])S(=O)[O-].[Na+].[Na+] [sodium dithionite],,,,,,,Em7 [7]: < -0.5 V
Copper(II),,+/-,+,,-,5,
Cr(VI),,+^e,-,,+,0.1,
Nile Blue A,,,,,,,Em7 [7]: -0.12 V
dichromate,,,,,,,Direct reaction with the indicator leuco dye [6]: react directly with the indicator dye
methyl violet,,,,,,,E1/2 [7]: approximately -0.75 V
